Tests used:
Type in all cases: cell-based, human
[1] = test system: PC3 cells; experiment: Cell proliferation (cell confluence, Incucyte Zoom), AR-null PC cell line PC3; details: 72 hours; DOX 100 ng/mL [184 nM], N-9 200 ng/mL [613 nM]; vs vehicle (DMSO)
Method: (§4) Cell confluence was monitored using Incucyte Zoom System and the experiments were done with eight replicates each. […] FIG. 4B: The non-tumorigenic prostate epithelial cell line RWPE1, the AR-null PC cell line PC3, and the CRPC cell lines C4-2B and 22Rv1 were treated for 72 hours with vehicle (DMSO), DOX (100 ng/mL [184 nM]), N-9 (200 ng/mL [613 nM]), or the combination of DOX (100 ng/mL [184 nM]) and N-9 (200 ng/mL [613 nM]). C4-2B and 22Rv1 cells were kept in 10% CSS media. Cell confluence was monitored using the Incucyte Zoom System. […] Cell confluence was monitored using the Incucyte Zoom System.
(§5) FIG. 19: The non-tumorigenic prostate epithelial cell line RWPE1, the AR-null PC cell line PC3, the CRPC cell lines C4-2B and 22Rvl and androgen dependent cell line LNCaP were treated for 72 hours with vehicle (DMSO), DOX (100 ng/mL [184 nM]), N-9 (200 ng/mL [613 nM]), or the combination of DOX (100 ng/mL [184 nM]) and N-9 (200 ng/mL [613 nM]). […] Cell confluence was monitored using the Incucyte Zoom System. […]
(§6) Cell proliferation: For growth assay, cells were plated in 96-well plates at 5,000 cells/well (for RWPE-1), or 7,500 cells/well (for 22Rvl, C4-2B, PC3), in 6-12 replicates. […] The Incucyte Zoom software was used to analyzed and graph the results.

[2] = test system: C4-2B cells; experiment: Cell proliferation (cell confluence, Incucyte Zoom), CRPC cell line C4-2B; details: 72 hours; DOX 100 ng/mL [184 nM], N-9 200 ng/mL [613 nM]; 10% CSS; vs vehicle (DMSO)
Method: as §4, §5, §6

[3] = test system: RWPE-1 cells; experiment: Cell proliferation (cell confluence, Incucyte Zoom), non-tumorigenic prostate epithelial cell line RWPE-1; details: 72 hours; DOX 100 ng/mL [184 nM], N-9 200 ng/mL [613 nM]; vs vehicle (DMSO)
Method: as §4, §5, §6

[4] = test system: 22Rv1 cells; experiment: Cell proliferation (cell confluence, Incucyte Zoom) and Compusyn combination index, CRPC cell line 22Rv1; details: 72 hours; DOX 100 ng/mL [184 nM], N-9 200 ng/mL [613 nM]; 10% CSS; vs vehicle (DMSO)
Method: FIG. 4A: The CRPC cell line 22Rv I was cultured in 2% CSS media and was treated for 72 hours with vehicle (DMSO), doxorubicin (DOX), N9-isopropylolomoucine (N-9), or the combination of DOX and N-9 at different concentrations. Cell confluence was monitored using Incucyte Zoom System and the experiments were done with eight replicates each. The data were analyzed using Compusyn software, and a normalized isobologram was built. […] CI=1 represents additivity, CI<1 synergism, and Cl>1 antagonistic effects. […] Cell confluence was monitored using the Incucyte Zoom System. […] Cell confluence was monitored using the Incucyte Zoom System. […]
as §6
To test whether inhibition of this network decreased CRPC cell proliferation, we used doxoruhicin (DOX), which inhibits TOP2A (Tacar et al., 201.3), and N9-isopropylolomoucine (N-9), which targets CCNB 1/CDK1 (Havlicek et al, 1997). […] The normalized isohologram and combination index (CI) were built and determined using Compusyn software.

[5] = test system: seven gene set (KIF20A, KIF23, TOP2A, CCNB1, CCNB2, BUB1, BUB1b) expression in 22Rv1 cells; experiment: qPCR expression of the seven gene set after androgen (R1881) stimulation, 22Rv1; details: 22Rv1, R1881 0.1 nM, 16 hours, vs vehicle
Method: (§1) LNCaP and 22Rv1 cells were seeded and 24 hours later were rinsed twice with PBS and incubated in serum free media for one hour. The cells were then incubated in media containing vehicle or R1881 (0.1 nM) for 16 hours prior to RNA extraction and qPCR analysis. FKBP5 was used as a positive control. Data represent one or two independent experiments, performed in biological triplicates, showing the mean±s.e.m., and normalized to vehicle control. Significant at a p value, ** p value<0.01, *** p value<0.001.
(§2) RNA isolation and reverse transcriptase quantitative RT-qPCR: Total RNA was collected using Trizol according to the manufacturer's protocol (Life Technologies), and isolated using Direct-zol RNA MiniPrep Plus (Zymo Research, Catalog number R2072). Total RNA was reverse transcribed using a cDNA ReverseTranscription kit (Applied Biosystems, Catalog number 4368814) as per the manufacturer's protocol. TaqMan probes from Applied Biosystems for FKBP5 (Hs01561006 ml), UBE2C (Hs00964100 gl), KIF20A (Hs00993573 ml), KIF23 (Hs00370852 ml), TOP2A (Hs01032137 ml), CCNB1 (Hs01030099 ml), CCNB2 (Hs01084593 gl), BUB1 (Hs01557695 ml), BUBlb (Hs01084828 ml) and GAPDH (Hs02786624 gl) were used.
(§3) Because of the overlapping transcriptomes of full length AR and AR-V7, we examined whether full length AR also regulated the seven gene set.

[6] = test system: seven gene set (KIF20A, KIF23, TOP2A, CCNB1, CCNB2, BUB1, BUB1b) expression in LNCaP cells; experiment: qPCR expression of the seven gene set after androgen (R1881) stimulation, LNCaP; details: R1881 0.1 nM, 16 hours, vs vehicle
Method: as §1, §2, §3

COc1cccc2c1C(=O)c1c(O)c3c(c(O)c1C2=O)C[C@@](O)(C(=O)CO)C[C@@H]3O[C@H]1C[C@H](N)[C@H](O)[C@H](C)O1 [DOX, Doxorubicin]
Effect on proliferation of PC3 [1]: no significant effect | Effect on proliferation of C4-2B [2]: no significant effect | Effect on proliferation of RWPE-1 [3]: no significant effect | Effect on proliferation of 22Rv1 [4]: no significant effect

CC(C)n1cnc2c(NCc3ccccc3)nc(NCCO)nc21 [N-9, N9-Isopropylolomoucine]
Effect on proliferation of PC3 [1]: no significant effect | Effect on proliferation of C4-2B [2]: no significant effect | Effect on proliferation of RWPE-1 [3]: no significant effect | Effect on proliferation of 22Rv1 [4]: no significant effect

C[C@]1(O)CC[C@H]2[C@@H]3CCC4=CC(=O)CCC4=C3C=C[C@@]21C [R1881, methyltrienolone]
Regulation of expression of the seven genes (qPCR) [5]: None of the seven genes are regulated | Regulation of expression of the seven genes (qPCR) [6]: None of the seven genes are regulated
